The text below walks through data of BindingDB's records for patent US10618914 (University of Pittsburgh, 2020).

Usually IC50 stands for the midpoint of a concentration-inhibition curve.

The test concerns the target T1, Signal transducer and activator of transcription 1-alpha/beta (Homo sapiens, UniProt P42224).
T1 sequence (P42224 whole entry): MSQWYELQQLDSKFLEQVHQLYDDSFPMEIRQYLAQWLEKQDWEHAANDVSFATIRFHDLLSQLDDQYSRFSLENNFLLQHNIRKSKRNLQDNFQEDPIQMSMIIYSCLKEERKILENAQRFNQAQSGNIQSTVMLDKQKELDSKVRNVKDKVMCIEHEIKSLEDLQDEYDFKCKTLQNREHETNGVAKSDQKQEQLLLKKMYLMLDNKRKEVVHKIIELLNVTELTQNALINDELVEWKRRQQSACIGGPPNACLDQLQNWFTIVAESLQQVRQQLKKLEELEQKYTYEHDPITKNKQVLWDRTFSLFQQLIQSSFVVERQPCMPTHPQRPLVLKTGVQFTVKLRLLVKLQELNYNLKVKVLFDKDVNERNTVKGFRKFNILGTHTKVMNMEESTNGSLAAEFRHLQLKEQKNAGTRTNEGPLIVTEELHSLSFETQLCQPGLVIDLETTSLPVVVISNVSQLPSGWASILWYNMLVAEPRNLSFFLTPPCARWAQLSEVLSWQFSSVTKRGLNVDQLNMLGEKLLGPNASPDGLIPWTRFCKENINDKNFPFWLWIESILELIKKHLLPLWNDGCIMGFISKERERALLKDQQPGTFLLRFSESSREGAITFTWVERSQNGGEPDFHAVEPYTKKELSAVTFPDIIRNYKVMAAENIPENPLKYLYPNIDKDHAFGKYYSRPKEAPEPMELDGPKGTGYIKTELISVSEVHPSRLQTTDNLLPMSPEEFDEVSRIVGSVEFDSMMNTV
The test can be described thus: Bioassay Evaluation.

Experimental: Compound samples (in 3-5 mg quantities) were evaluated in a variety of assays.

`CC1(C)Sc2nnc(-c3[nH]nc4c3CCC4)n2N=C1c1ccc(Cl)c(Cl)c1` [US10618914, Compound 32] registered an IC50 greater than 50 µM.

`CC1Sc2nnc(-c3[nH]nc4c3CCC4)n2N=C1c1ccc(Cl)c(Cl)c1` (configuration not stated) [US10618914, Compound 19] came in with an IC50 greater than 50 µM.
